Reference: patent US10807968B2, “Substituted 2-(het)arylimidazolylcarboxyamides as pesticides” (Bayer CropScience Aktiengesellschaft, priority 2016, dated 2020)
Read-outs that look alike come from different tables or passages of the source.

Tests used:
[1] = log P determination by HPLC on reversed-phase (C18) columns, OECD Guideline 117; type: physicochemical; conditions: for chromatographic logP: reversed-phase (C18) HPLC column
Description: The log P values were determined in accordance with OECD Guideline 117 (EC Directive 92/69/EEC) by HPLC (high-performance liquid chromatography) using reversed-phase (RP) columns (C18), by the following methods:
[a] The LC-MS determination in the acidic range was carried out at pH 2.7 with 0.1% aqueous formic acid and acetonitrile (contains 0.1% formic acid) as mobile phases; linear gradient from 10% acetonitrile to 95% acetonitrile.
[b] LC-MS determination in the neutral range was carried out at pH 7.8 with 0.001 molar aqueous ammonium hydrogencarbonate solution and acetonitrile as mobile phases; linear gradient from 10% acetonitrile to 95% acetonitrile.

Myzus persicae [2] = assay: Myzus persicae - spray test (Chinese cabbage leaf discs); type: in vivo; conditions: after 6 days; for pest or weed control at 500 g/ha: Myzus persicae, foliar, 144 h, read-out: efficacy in % (aphids killed)
Description: Myzus persicae—Spray Test
Solvent: 78 parts by weight of acetone • • 1.5 parts by weight of dimethylformamide
Emulsifier: alkylaryl polyglycol ether
To produce a suitable preparation of active compound, 1 part by weight of active compound is dissolved using the specified parts by weight of solvent and made up with water containing an emulsi fier concentration of 1000 ppm until the desired concentration is attained. To produce further test concentrations, the formulation is diluted with emulsifier-containing water.
Discs of Chinese cabbage leaves (Brassica pekinensis) infested by all stages of the green peach aphid (Myzus persicae) are sprayed with an active compound formulation of the desired concentration.
After 6 days, the efficacy in % is determined. 100% means that all the aphids have been killed; 0% means that no aphids have been killed.

Myzus persicae [3] = assay: Myzus persicae - oral test; type: in vivo; conditions: after 5 days; for pest or weed control at 20 ppm: Myzus persicae, 120 h, read-out: efficacy in % (aphids killed); for efficacy in % (aphids killed): 20 ppm
Description: Solvent: 100 parts by weight of acetone
Subsequently, the plates are sealed with parafilm, which a mixed population of green peach aphids (Myzus persicae) within a second microtitre plate is able to puncture and imbibe the solution through it.
After 5 days, the efficacy in % is determined. 100% means that all the aphids have been killed; 0% means that no aphids have been killed.

[4] = pH 2.7, HPLC, acidic range pH 2.7, 0.1% aqueous formic acid/acetonitrile, read-out: logp-acidic
[5] = pH 7.8, HPLC, neutral range pH 7.8, 0.001 molar aqueous ammonium hydrogencarbonate/acetonitrile, read-out: logp-neutral
[6] = HPLC, acidic range pH 2.7, 0.1% aqueous formic acid/acetonitrile
[7] = HPLC, neutral range pH 7.8, 0.001 molar aqueous ammonium hydrogencarbonate/acetonitrile

Structure (SMILES) | chromatographic logP [1, 4] | chromatographic logP [1, 5] | logp-acidic ([1]; pH 2.7) | logp-neutral ([1]; pH 7.8) | pest or weed control at 500 g/ha (Myzus persicae [2]; 500 g/ha) [%] | pest or weed control at 20 ppm (Myzus persicae [3]) [%] | logp-acidic [1, 6] | logp-neutral [1, 7] | efficacy in % (aphids killed) (Myzus persicae [2]; 500 g/ha) [%] | efficacy in % (aphids killed) (Myzus persicae [3]) [%] | efficacy in % (aphids killed) (Myzus persicae [2]; 100 g/ha) [%]
CN(C(=O)c1cnc(-c2cccc(C#N)c2)n1C)c1cccnc1 [Example 58] | – | – | – | – | – | – | 0.91 | 1.33 | 100 | 100 | –
CN(C(=O)c1cnc(-c2ccc(C#N)c(C(F)(F)F)c2)n1C)c1cccnc1 [Example 55] | 1.72 | 1.92 | – | – | 90 | 100 | – | – | – | – | –
Cc1cc(C)cc(-c2ncc(C(=O)N(C)c3cccnc3)n2C)c1 [Example 8] | – | – | – | – | – | – | 1.16 | – | – | 100 | 90
CC(C)n1cc(-c2ncc(C(=O)N(C)c3cccnc3)n2C)nn1 [Example 73] | – | – | 0.88 | 1.24 | – | – | – | – | 100 | 100 | –
CN(C(=O)c1cnc(-c2cnn(-c3ccccc3)c2)n1C)c1cccnc1 [Example 26] | – | – | 1.19 | 1.70 | – | – | – | – | 90 | 100 | –
CN(C(=O)c1cnc(-c2ccc(Cl)c(Cl)c2)n1C)c1cccnc1 [Example 13] | – | – | – | – | – | – | 1.79 | – | 90 | 100 | –
CSc1cc(-c2ncc(C(=O)N(C)c3cccnc3)n2C)ccc1C [Example 23] | – | – | 1.43 | 2.03 | – | – | – | – | 100 | 100 | –
CN(C(=O)c1cnc(-c2cc(C#N)cc(C(F)(F)F)c2)n1C)c1cccnc1 [Example 61] | – | – | – | – | – | – | 1.85 | 1.96 | 100 | 100 | –
CN(C(=O)c1cnc(-c2cc(Cl)cc(C#N)c2)n1C)c1cccnc1 [Example 69] | – | – | – | – | – | – | 1.52 | 1.74 | 100 | 100 | –
COc1ccc(C#N)cc1-c1ncc(C(=O)N(C)c2cccnc2)n1C [Example 62] | – | – | – | – | – | – | 0.78 | 1.37 | 100 | 100 | –
CC(=O)OCc1cc(-c2ncc(C(=O)N(C)c3cccnc3)n2C)ccc1F [Example 44] | – | – | 1.39 | 1.81 | – | – | – | – | 90 | 90 | –
CN(C(=O)c1cnc(-c2cccc(COC(=O)C3CC3)c2)n1C)c1cccnc1 [Example 45] | – | – | 1.28 | 1.86 | – | – | – | – | 90 | 90 | –
CN(C(=O)c1cnc(-c2cc(C(F)(F)F)cc(C(F)(F)F)c2)n1C)c1cccnc1 [Example 53] | – | – | 2.43 | 2.63 | – | – | – | – | 90 | 100 | –
CN(C(=O)c1cnc(-c2ccc(Cl)c(C#N)c2)n1C)c1cccnc1 [Example 59] | – | – | – | – | – | – | 1.42 | 1.69 | 90 | 100 | –
CN(C(=O)c1cnc(-c2cnn(-c3ccccc3C#N)c2)n1C)c1cccnc1 [Example 24] | – | – | 1.07 | 1.49 | – | – | – | – | 90 | 100 | –
COC(=O)c1cccc2c(-c3ncc(C(=O)N(C)c4cccnc4)n3C)cccc12 [Example 28] | – | – | 1.56 | 1.95 | – | – | – | – | 90 | 100 | –
CN(C(=O)c1cnc(-c2cccc([S+]([O-])CC(F)(F)F)c2)n1C)c1cccnc1 (stereo not shown) [Example 5] | – | – | 1.07 | 1.43 | – | – | – | – | 90 | 100 | –
CN(C(=O)c1cnc(-c2ccccc2Cl)n1C)c1cccnc1 [Example 9] | – | – | – | – | – | – | 1.10 | – | 100 | 100 | –
Cc1cc(F)c(-c2ncc(C(=O)N(C)c3cccnc3)n2C)cc1SCC(F)(F)F [Example 2] | 2.23 | 2.48 | – | – | 90 | 100 | – | – | – | – | –
CN(C(=O)c1cnc(-c2ccc(F)c(C#N)c2)n1C)c1cccnc1 [Example 63] | – | – | – | – | – | – | 1.15 | 1.52 | 90 | 100 | –
CCOc1ncc(-c2ncc(C(=O)N(C)c3cccnc3)n2C)cc1C#N [Example 67] | – | – | 1.50 | 1.73 | – | – | – | – | 100 | 100 | –
CN(C(=O)c1cnc(-c2cc(-c3ccccc3)no2)n1C)c1cccnc1 [Example 71] | 1.9 | 2.37 | – | – | 100 | 100 | – | – | – | – | –

The next lines start with results.

chromatographic logP [1, 4] | chromatographic logP [1, 5] | logp-acidic ([1]; pH 2.7) | logp-neutral ([1]; pH 7.8) | Structure (SMILES) | pest or weed control at 500 g/ha (Myzus persicae [2]; 500 g/ha) [%] | pest or weed control at 20 ppm (Myzus persicae [3]) [%] | logp-acidic [1, 6] | logp-neutral [1, 7] | efficacy in % (aphids killed) (Myzus persicae [2]; 500 g/ha) [%] | efficacy in % (aphids killed) (Myzus persicae [3]) [%] | efficacy in % (aphids killed) (Myzus persicae [2]; 100 g/ha) [%]
0.74 | 1.16 | – | – | CN(C(=O)c1cnc(-c2ccccn2)n1C)c1cccnc1 [Example 47] | 90 | 100 | – | – | – | – | –
– | – | 0.93 | 1.33 | CSc1ncccc1-c1ncc(C(=O)N(C)c2cccnc2)n1C [Example 91] | – | – | – | – | 90 | 100 | –
– | – | 0.58 | 1.25 | COc1ccc(-c2ncc(C(=O)N(C)c3cccnc3)n2C)cn1 [Example 103] | – | – | – | – | 100 | 100 | –
– | – | 0.53 | 1.16 | COc1ncccc1-c1ncc(C(=O)N(C)c2cccnc2)n1C [Example 88] | – | – | – | – | 90 | 100 | –
– | – | 1.87 | 2.36 | CN(C(=O)c1cnc(-c2cccc(SCC3CC3)c2)n1C)c1cccnc1 [Example 18] | – | – | – | – | 90 | 100 | –
– | – | 0.93 | 1.53 | CCOc1ccc(-c2ncc(C(=O)N(C)c3cccnc3)n2C)cn1 [Example 89] | – | – | – | – | 90 | 100 | –
– | – | 0.97 | 1.62 | CN(C(=O)c1cnc(-c2cccc3ccoc23)n1C)c1cccnc1 [Example 80] | – | – | – | – | 100 | 100 | –
– | – | 0.8 | 1.54 | COc1ccc(-c2ncc(C(=O)N(C)c3cccnc3)n2C)c(OC)c1 [Example 84] | – | – | – | – | 100 | 100 | –
0.18 | – | – | – | CN(C(=O)c1cnc(-c2cccnc2)n1C)c1cccnc1 [Example 7] | 90 | 100 | – | – | – | – | –
– | – | 1.91 | 2.04 | CN(C(=O)c1cnc(-c2cccc(C(F)(F)F)n2)n1C)c1cccnc1 [Example 86] | – | – | – | – | 90 | 100 | –
– | – | 1.57 | 2.05 | CN(C(=O)c1cnc(-c2ccc(F)c3ccccc23)n1C)c1cccnc1 [Example 30] | – | – | – | – | 90 | 100 | –
– | – | 0.91 | 1.38 | COc1ncc(F)cc1-c1ncc(C(=O)N(C)c2cccnc2)n1C [Example 101] | – | – | – | – | 100 | 100 | –
– | – | 0.75 | 1.1 | CN(C(=O)c1cnc(-c2ncccc2Cl)n1C)c1cccnc1 [Example 106] | – | – | – | – | 90 | 90 | –
0.62 | – | – | – | CN(C(=O)c1cnc(-c2cccn2C)n1C)c1cccnc1 [Example 14] | 90 | 100 | – | – | – | – | –
– | – | 0.23 | 1.03 | CN(C(=O)c1cnc(-c2ccccc2OCC(N)=O)n1C)c1cccnc1 [Example 104] | – | – | – | – | 100 | 100 | –
– | – | 0.65 | 1.45 | COc1ccccc1-c1ncc(C(=O)N(C)c2cccnc2)n1C [Example 82] | – | – | – | – | 100 | 100 | –
– | – | 1.21 | 1.79 | CC(C)Oc1ccc(-c2ncc(C(=O)N(C)c3cccnc3)n2C)cn1 [Example 102] | – | – | – | – | 90 | 100 | –
